Test results reported in patent US11591366B2, “Macrocyclic compounds and methods of preventing or treating pain” (SOCPRA SCIENCES SANTÉ ET HUMAINES S.E.C., priority 2017, dated 2023).
Like-named read-outs stand apart in the source and are kept apart here. Values belong to the compound of their own block, whether it stands above or below them. Numbered stars: 1 amine (or outer) side, 2 acyl side, 3 side chain; on linkers, the order of the positions; unused ones are H or OH. Square brackets hold non-standard residues; d marks the D form. Peptide text beside a SMILES is read from it. X3 = NCCCC[C@H](N)CN([C@@H](CCCCN)C(=O)[*:2])[*:1]; Tle = CC(C)(C)[C@H](N)C(=O)O

Key:
Plasma stability assay = format: in vitro ADME; settings: rat plasma at 37° C.
Experimental: Rat plasma was obtained by centrifugation of rat blood (13000 rpm, 5 min, 4° C.). […] Proteolytic degradation was quenched by adding 70 μL of acetonitrile/ethanol (1:1), 0.5% nicotinamide solution and vortexing. […] Data were analyzed using GraphPad Prism 7's one phase decay equation.

rNTS2 receptor = target: T1, rNTS2 receptor (Rattus norvegicus, UniProt Q63384); assay: Competitive radioligand binding assay on the rNTS2 receptor; settings: for inhibition at 1 µM: 1 μM macrocycle dose, read-out: NTS2 % displ at 1 μM (radiolabeled neurotensin displaced); for IC50: 125I-[Tyr3]-NT competition, rNTS2 membranes, read-out: NTS2 IC50
T1 construct: expressed in transfected cells; host or cells: DRG-F11 cells, transient transfection, membranes
T1 sequence (Q63384 1-416): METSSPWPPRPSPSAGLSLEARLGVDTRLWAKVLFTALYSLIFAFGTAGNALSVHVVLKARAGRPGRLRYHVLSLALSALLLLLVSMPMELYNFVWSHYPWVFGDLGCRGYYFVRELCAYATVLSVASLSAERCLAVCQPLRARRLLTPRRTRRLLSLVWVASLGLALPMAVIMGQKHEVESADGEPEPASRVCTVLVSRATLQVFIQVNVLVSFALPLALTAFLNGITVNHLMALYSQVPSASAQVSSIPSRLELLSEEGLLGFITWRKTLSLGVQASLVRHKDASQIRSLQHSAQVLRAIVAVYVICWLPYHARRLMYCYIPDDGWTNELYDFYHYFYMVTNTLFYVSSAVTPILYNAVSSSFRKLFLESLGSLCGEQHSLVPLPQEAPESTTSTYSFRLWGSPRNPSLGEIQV
Experimental: DRG-F11 cells were cultured in DMEM supplemented with 10% FBS, 100 U/mL penicillin, 100 μg/mL streptomycin, and 20 mM HEPES.
Membranes were prepared by scraping cells off the culture dish with 50 mM Tris ph 7.5 and centrifuged at 15,000 g for 5 min at 4° C. The pellet was resuspended in 10 mM Tris, 1 mM EDTA pH 7.5 and sonicated for 30 s prior to be centrifugated at 15,000 g for 30 min at 4° C. The pellet was then re-suspended in binding 9 buffer. […] All other steps in binding experiments were unchanged comparing to the one using the NTS1 receptor.

rats = assay: Blood pressure (hypotension); format: in vivo, rat; settings: 0.01 mg/kg; for Arterial blood pressure response / Blood pressure drop, first phase / Blood pressure in phase 3: rat, i.v.
Experimental: Mean, systolic and diastolic arterial blood pressure and a heart rate were measured through a catheter (PE 50 filled with heparinized saline) inserted in the right carotid artery and connected to a Micro-Med™ transducer (model TDX-300, USA) linked to a blood pressure Micro-Med™ analyzer (model BPA-100c). Another catheter (PE 10 filled with heparinized saline) was inserted in the left jugular vein for injection of test compounds at 0.01 mg/kg (volume 1 mL/kg, 5-10 s) or 0.9% saline. Blood pressure was recorded each second for up to 900 seconds following intravenous injection.

hNTS1 receptor = hNTS1 receptor (Homo sapiens, UniProt P30989); assay: Competitive radioligand binding assay on the hNTS1 receptor; settings: 125I-[Tyr3]-NT competition, hNTS1 membranes; mean ± SEM; read-out: NTS1 IC50
Experimental: CHO-K1 (Chinese Hamster Ovary) cells stably expressing hNTS1 (ES-690-C from PerkinElmer, Montréal, Canada) were cultured in DMEM F12 culture medium at 37° C. in a humidified chamber under 5% CO2. Culture media were supplemented with 10% FBS, 100 U/mL penicillin, 100 μg/mL streptomycin, 20 mM HEPES, and 0.4 mg/mL G418 at 37° C.
Cells were frozen when they reached 80% confluency. They were scrapped off the dish with 10 mM Tris buffer, 1 mM EDTA, pH 7.5 and centrifuged at 15,000 g for 5 min at 4° C. The pellet was then re-suspended in binding buffer.
Competitive radioligand binding experiments were performed by incubating 15 μg of cell membranes expressing the hNTS1 receptor with 45 pM of ^125I-[Tyr^3]-NT (2200 Ci/mmol purchased from PerkinElmer, Billerica, Mass.) in binding buffer (50 mM Tris-HCl, pH7.5, 0.2% BSA) in the presence of increasing concentrations of the compounds of the invention ranging from 10^−11 to 10^−4 M for 60 min at 25° C. […] Glass filters were then counted using a γ-counter (2470 Wizard2, PerkinElmer, Missisauga, Ontario, Canada).
IC50 (Inhibitory Concentration 50) values were determined from the competition curves as the unlabeled ligand concentration inhibiting half of the ^125I-[Tyr]-NT-specific binding. […]

[1] = target: T2, hNTS1 (β-arrestin 2 recruitment) (Homo sapiens, UniProt P30989); assay: BRET biosensor assay, β-arrestin 2 recruitment; format: cell-based
T2 construct: expressed in transfected cells; host or cells: CHO-K1, transient transfection with PEI
Experimental: CHO-K1 cells were cultured in DMEM-F12 supplemented with 10% FBS, 100 U/mL penicillin, 100 μg/mL streptomycin, and 20 mM HEPES at 37° C. in a humidified chamber at 5% CO2. Cells were seeded into T75 flasks at a density of 20 000 cells/cm^2; 24 h later, cells were transfected with plasmids coding for hNTS1-Green fluorescent protein 10(GFP10)/Rluc (Renilla Luciferase)II-β-arrestin 1 or hNTS1-GFP10/RlucII-β-arrestin2, or with hNTS1/Gαq-RlucII/Gβ1/IGFP10-Gγ1 or hNTS1/Gα13-RlucII/Gβ1/GFP10-Gγ1 using polyethylenimine (PEI). Cells were transferred into 96-well plates at a concentration of 50 000 cells/well 24 h after transfection and incubated at 37° C. overnight. They were then washed with PBS and 90 μL HBSS was added in each well. […] After stimulation, coelenterazine 400A was added in each well to a final concentration of 5 μM and the plate was read using filter selected for BRET2 measurement (BRET2 High efficiency filter set, λemRlucII: 410±80 nm, λemGFP10: 515±40 nm) on a Mithras 2 plate reader (Berthold Technologies, Tennessee, USA). BRET2 ratio was determined as GFP10em/RlucIIem. […] EC50 (Effective Concentration 50) values were determined using the dose response-stimulation log(agonist) vs response (three parameters) and represent the mean±SEM of at least three separate experiments, each performed in triplicate.
NTS1 is capable of activating several signaling pathways, thus the activation of Gαq, Gα13, β-arrestin 1 and β-arrestin 2 pathways was monitored. The ability of compounds of the invention to activate the NTS1 receptor was assessed using Bioluminescence Resonance Energy Transfer (BRET)-based biosensors, reporting the dissociation of G proteins (Table III, column EC50 Gq) and the recruitment of β-arrestins to the receptor (Table III, column EC50 βarr).

[2] = target: T3, hNTS1 (β-arrestin 1 recruitment) (Homo sapiens, UniProt P30989); assay: BRET biosensor assay, β-arrestin 1 recruitment; format: cell-based; settings: CHO-K1 cells transiently transfected with hNTS1 and biosensors, mean ± SEM, read-out: EC50 β-arr1
T3 construct: expressed in transfected cells; host or cells: CHO-K1, transient transfection with PEI
Experimental: CHO-K1 cells were cultured in DMEM-F12 supplemented with 10% FBS, 100 U/mL penicillin, 100 μg/mL streptomycin, and 20 mM HEPES at 37° C. in a humidified chamber at 5% CO2. Cells were seeded into T75 flasks at a density of 20 000 cells/cm^2; 24 h later, cells were transfected with plasmids coding for hNTS1-Green fluorescent protein 10(GFP10)/Rluc (Renilla Luciferase)II-β-arrestin 1 or hNTS1-GFP10/RlucII-β-arrestin2, or with hNTS1/Gαq-RlucII/Gβ1/IGFP10-Gγ1 or hNTS1/Gα13-RlucII/Gβ1/GFP10-Gγ1 using polyethylenimine (PEI). Cells were transferred into 96-well plates at a concentration of 50 000 cells/well 24 h after transfection and incubated at 37° C. overnight. […] After stimulation, coelenterazine 400A was added in each well to a final concentration of 5 μM and the plate was read using filter selected for BRET2 measurement (BRET2 High efficiency filter set, λemRlucII: 410±80 nm, λemGFP10: 515±40 nm) on a Mithras 2 plate reader (Berthold Technologies, Tennessee, USA). BRET2 ratio was determined as GFP10em/RlucIIem. […] EC50 (Effective Concentration 50) values were determined using the dose response-stimulation log(agonist) vs response (three parameters) and represent the mean±SEM of at least three separate experiments, each performed in triplicate.
NTS1 is capable of activating several signaling pathways, thus the activation of Gαq, Gα13, β-arrestin 1 and β-arrestin 2 pathways was monitored. […]

[3] = 24 h is the longest time tested
[4] = BRET, CHO-K1 cells transiently transfected with hNTS1 and biosensors, mean ± SEM, read-out: EC50 β-arr2

T2 sequence (P30989 whole entry): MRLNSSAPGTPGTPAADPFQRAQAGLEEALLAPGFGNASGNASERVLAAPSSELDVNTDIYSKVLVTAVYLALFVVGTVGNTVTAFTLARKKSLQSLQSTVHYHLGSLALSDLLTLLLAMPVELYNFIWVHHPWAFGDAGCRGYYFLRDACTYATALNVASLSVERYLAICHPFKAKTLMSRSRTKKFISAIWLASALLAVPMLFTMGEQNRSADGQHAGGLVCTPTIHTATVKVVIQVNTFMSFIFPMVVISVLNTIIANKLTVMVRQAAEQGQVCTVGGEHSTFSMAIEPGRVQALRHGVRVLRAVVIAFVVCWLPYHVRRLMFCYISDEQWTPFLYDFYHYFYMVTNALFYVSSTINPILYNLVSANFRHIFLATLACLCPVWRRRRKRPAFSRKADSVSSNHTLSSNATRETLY
T2 sequence (P32121 whole entry partner): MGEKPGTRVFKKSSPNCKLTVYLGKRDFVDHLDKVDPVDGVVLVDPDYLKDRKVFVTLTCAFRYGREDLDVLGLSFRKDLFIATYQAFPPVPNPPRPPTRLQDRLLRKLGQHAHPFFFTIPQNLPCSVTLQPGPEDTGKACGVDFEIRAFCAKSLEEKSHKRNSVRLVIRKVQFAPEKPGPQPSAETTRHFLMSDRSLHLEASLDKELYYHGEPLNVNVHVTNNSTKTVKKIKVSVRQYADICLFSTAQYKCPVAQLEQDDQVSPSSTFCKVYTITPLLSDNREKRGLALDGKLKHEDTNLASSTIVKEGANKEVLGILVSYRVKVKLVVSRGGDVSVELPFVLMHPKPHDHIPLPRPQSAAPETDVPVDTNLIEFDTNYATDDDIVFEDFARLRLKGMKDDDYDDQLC
Sequence of hNTS1 receptor (P30989 whole entry): as the sequence (P30989 whole entry) above
T3 sequence (P30989 whole entry): as above
T3 sequence (P49407 whole entry partner): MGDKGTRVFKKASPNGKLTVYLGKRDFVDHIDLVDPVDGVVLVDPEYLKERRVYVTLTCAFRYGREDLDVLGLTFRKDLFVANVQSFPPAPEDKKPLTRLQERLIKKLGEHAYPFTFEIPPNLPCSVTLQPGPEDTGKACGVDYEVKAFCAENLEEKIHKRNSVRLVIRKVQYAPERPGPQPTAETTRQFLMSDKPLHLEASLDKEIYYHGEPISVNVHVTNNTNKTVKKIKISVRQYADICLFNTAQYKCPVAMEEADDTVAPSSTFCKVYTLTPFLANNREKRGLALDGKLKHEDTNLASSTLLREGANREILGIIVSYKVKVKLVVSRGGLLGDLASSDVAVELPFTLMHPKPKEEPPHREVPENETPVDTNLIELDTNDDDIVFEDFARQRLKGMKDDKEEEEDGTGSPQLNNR

SMILES: CCOC(=O)[C@H](CC(C)C)NC(=O)[C@@H](NC(=O)[C@H](Cc1c[nH]c2ccccc12)NC(=O)[C@@H]1CCCN1C(=O)[C@H](CCCCN)NC[C@@H](N)CCCCN)C(C)(C)C [PD149163, H-Lys-[ψCH2NH]-Lys-Pro-Trp-tertLeu-Leu-OEt, reference compound] (H-[X3]PW[Tle]L-OEt)
- Arterial blood pressure response (rats): triphasic
- Blood pressure drop, first phase (rats): about −25 mmHg
- Blood pressure in phase 3 (rats): more sustained

SMILES: C=CCNCCCC[C@H](N)C(=O)N[C@@H](CCCCN)C(=O)N1CCC[C@H]1C(=O)N[C@@H](Cc1ccc(O)c(CC=C)c1)C(=O)N[C@H](C(=O)N[C@@H](CC(C)C)C(=O)O)C(C)CC (stereo partly drawn) [Compound 2-L, K(All)KPY(All)IL]
- Plasma half-life (Plasma stability assay): 0.083 h

SMILES: CCC(C)[C@H](NC(=O)[C@@H]1Cc2ccc(O)c(c2)CC=CCNCCCC[C@@H](N)C(=O)N[C@@H](CCCCN)C(=O)N2CCC[C@H]2C(=O)N1)C(=O)N[C@@H](CC(C)C)C(=O)O (stereo partly drawn) [Compound 4, c[K(All)KPY(All)]IL]
- Plasma half-life (Plasma stability assay; [3]): 24 h
- inhibition at 1 µM (rNTS2 receptor): 93%

SMILES: CCC(C)[C@H](NC(=O)[C@@H]1Cc2ccc(O)c(c2)CC=CCN(S(=O)(=O)c2ccccc2[N+](=O)[O-])CCCC[C@H](N)C(=O)N[C@@H](CCCCN)C(=O)N2CCC[C@H]2C(=O)N1)C(=O)N[C@@H](CC(C)C)C(=O)O (stereo partly drawn) [Compound 5, c[K(All)(S(O)2(o-nitrophenyl))KPY(All)]IL]
- half-life at […] (Plasma stability assay; [3]): 1.4 h
- inhibition at 1 µM (rNTS2 receptor): 96%
- IC50 (rNTS2 receptor): 511 nM

SMILES: CCC(C)[C@H](NC(=O)[C@@H]1Cc2ccc(O)c(c2)CC=CCCCCCCC(=O)N[C@@H](CCCCN)C(=O)N2CCC[C@H]2C(=O)N1)C(=O)NC(CC(C)C)C(=O)O (stereo partly drawn) [Compound 1, c[nonenoic acid KPY(All)]IL]
- EC50 [1, 4]: 1370 ± 126 nM
- half-life at […] (Plasma stability assay; [3]): 12 h

SMILES: CCC(C)[C@H](NC(=O)[C@@H]1Cc2ccc(O)c(c2)CC=CCCCCCC[C@](C)(N)C(=O)N[C@@H](CCCCN)C(=O)N2CCC[C@H]2C(=O)N1)C(=O)N[C@@H](CC(C)C)C(=O)O (stereo partly drawn) [Compound 3, c[OctenylAKPY(All)]IL]
- EC50 [1]: 28 ± 0.1 nM
- Plasma half-life (Plasma stability assay; [3]): 24 h
- Hypotension (I.V.) (rats): Triphasique
- Arterial blood pressure response (rats): triphasic
- Blood pressure drop, first phase (rats): about −25 mmHg
- Blood pressure in phase 3 (rats): slowly returned towards baseline
- inhibition at 1 µM (rNTS2 receptor): 96%
- IC50 (rNTS2 receptor): 25.8 nM

SMILES: C=CCNCCCC[C@H](N)C(=O)N[C@@H](CCCCN)C(=O)N1CCC[C@H]1C(=O)N[C@@H](Cc1ccc(O)c(CC=C)c1)C(=O)N[C@H](C(=O)N[C@@H](CC(C)C)C(=O)O)C(C)CC (stereo partly drawn) [Compound 1-L, nonenoic acid KPY(All)IL]
- Plasma half-life (Plasma stability assay; [3]): 4 h

Continued, values first:

- half-life at […] (Plasma stability assay): 0.05 h
- inhibition at 1 µM (rNTS2 receptor): 100%
SMILES: CCC(C)[C@H](NC(=O)[C@H](Cc1ccc(O)cc1)NC(=O)[C@@H]1CCCN1C(=O)[C@H](CCCNC(=N)N)NC(=O)[C@@H](N)CCCNC(=N)N)C(=O)N[C@@H](CC(C)C)C(=O)O (stereo partly drawn) [NT 8-13, RRPYIL, reference compound]

- half-life at […] (Plasma stability assay): 0.3 h
- inhibition at 1 µM (rNTS2 receptor): 105%
SMILES: CCC(C)[C@H](NC(=O)[C@@H]1Cc2ccc(O)c(c2)CC=CCCCNCCCC[C@H](N)C(=O)N[C@@H](CCCCN)C(=O)N2CCC[C@H]2C(=O)N1)C(=O)N[C@@H](CC(C)C)C(=O)O (stereo partly drawn) [Compound 10, c[K(pentenyl)KPY(All)]IL]

- IC50 (hNTS1 receptor): 500 ± 22 nM
- EC50 [1, 4]: 96 ± 0.05 nM
- EC50 [2]: 96 ± 0.07 nM
- Plasma half-life (Plasma stability assay; [3]): 24 h
- inhibition at 1 µM (rNTS2 receptor): 93%
SMILES: CCC(C)[C@H](NC(=O)[C@@H]1Cc2ccc(O)c(c2)CC=CCNCCCCCC(=O)N[C@@H](CCCCN)C(=O)N2CCC[C@H]2C(=O)N1)C(=O)N[C@@H](CC(C)C)C(=O)O (stereo partly drawn) [Compound 6, c[aminohex-6-enoic acid(All)KPY(All)]IL]

- half-life at […] (Plasma stability assay): 0.25 h
- inhibition at 1 µM (rNTS2 receptor): 104%
SMILES: CCC(C)[C@H](NC(=O)[C@@H]1Cc2ccc(O)c(c2)CC=CCCNCCCC[C@H](N)C(=O)N[C@@H](CCCCN)C(=O)N2CCC[C@H]2C(=O)N1)C(=O)N[C@@H](CC(C)C)C(=O)O (stereo partly drawn) [Compound 9, c[K(butenyl)KPY(All)]IL]

- half-life at […] (Plasma stability assay; [3]): 2.5 h
- inhibition at 1 µM (rNTS2 receptor): 64%
SMILES: CCC(C)[C@H](NC(=O)[C@@H]1Cc2ccc(O)c(c2)CC=CCNCC[C@H](N)C(=O)N[C@@H](CCCCN)C(=O)N2CCC[C@H]2C(=O)N1)C(=O)N[C@@H](CC(C)C)C(=O)O (stereo partly drawn) [Compound 8, c[Dab(All)KPY(All)]IL]

- inhibition at 1 µM (rNTS2 receptor): 78%
SMILES: CCC(C)[C@H](NC(=O)[C@@H]1Cc2ccc(O)c(c2)CC=CCCCCCCC(=O)N[C@@H](CCCNC(=N)N)C(=O)N2CCC[C@H]2C(=O)N1)C(=O)N[C@@H](CC(C)C)C(=O)O (stereo partly drawn) [Compound 11, c[nonenoic acid-RPY(All)]IL]

- IC50 (hNTS1 receptor): > 10000 nM
- IC50 (rNTS2 receptor): 1100 nM
SMILES: CCC(C)[C@H](NC(=O)[C@H]1Cc2ccc(O)c(c2)CC=CCCCCCC[C@](C)(N)C(=O)N[C@@H](CCCCN)C(=O)N2CCC[C@H]2C(=O)N1)C(=O)N[C@@H](CC(C)C)C(=O)O (stereo partly drawn) [Compound 12, c[OctenylAKPY(All)]IL]
